Measurements from patent publication US20100009956A1, “NOVEL SUBSTITUTED PYRIMIDINES AS CYSTEINE PROTEASE INHIBITORS” (Glaxo Group Limited , a corporation, priority 2006, published 2010).
Structures can show the parent of a compound that is named as a salt. Where two headings read alike, the source gives them in different places.

Assays:
Type in all cases: biochemical
Falcipain-2 = Falcipain-2 (Plasmodium falciparum, UniProt Q8I6U4); assay: Falcipain-2 enzymatic assay (assay 1)
Method: (§1) Assay 1) Determination of Falcipain-2, Falcipain-3, Vivapain-2, Cathepsin K Cathepsin S, Cathepsin L, and Cathepsin B Proteolytic Catalytic Activity
(§2) Assays for Falcipain-2, Falcipain-3, and Vivapain-2 are carried out with parasitic recombinant enzymes. Cathepsins K, S, L, and B are carried out with human recombinant enzymes. Standard assay conditions for the determination of kinetic constants used a fluorogenic peptide substrate, typically H-D-VLR-AFC (Falcipain-2, Falcipain-3, Vivapain-2), Z-FR-AFC (Cathepsin K, L, B), or KQKLR-AMC (Cathepsin S) and are determined in 100 mM sodium acetate, pH 5.5, containing 10 mM DTT and 0.5 mM CHAPS (Falcipain-2, Falcipain-3, Vivapain-2), and 100 mM sodium acetate, pH 5.5, containing 5 mM L-cysteine, 1 mM CHAPS and 5 mM EDTA (Cathepsin K, L, B), or 50 mM MES, pH 6.5, containing 0.5 mM CHAPS, 10 mM L-CYS, 5 mM EDTA (Cathepsin S). Stock substrate solutions are prepared at 20 mM in DMSO. The activity assays contained 30 uM substrate (Falcipain-2, Falcipain-3, Vivapain-2), 20 uM substrate (Cathepsin K), 25 uM substrate (Cathepsin B), 5 uM substrate (Cathepsin L), and 30 uM substrate (Cathepsin S). All assays contained 1% DMSO. […] All assays are conducted at ambient temperature as end point assays being quenched after 60 minutes with the exception of Cathepsin S at 90 minutes, with 16.6 uM E-64 in 1% DMSO. Product formation (AFC or AMC) is determined from fluorescence (excitation at 405 nm; emission at 530 nm, AFC, or excitation at 360 nm; emission at 460 nm, AMC) monitored with a LJL Aquest (Molecular Devices) fluorescent plate reader. In the case of kinetic reads (used in mechanism of action studies), the reaction is not quenched but is read in the plate reader every 3 minutes for approximately 90 minutes. In addition, the mechanism of action studies for Falcipain-2 utilize Z-LR-AMC as the substrate. Product formation is determined from the fluorescence of AMC, measured with a LJL Acquest (Molecular Devices) fluorescent plate reader (excitation at 360 nm; emission at 460 nm).
(§3) Potential inhibitors are evaluated using the quenched read (endpoint) method. Assays are carried out in the presence of variable concentrations of test compound. Reactions are initiated by addition of enzyme and substrate to wells containing inhibitor stamped in 100% DMSO. For endpoint assays, the reaction is quenched with the addition of E64. Dose response data is fit to an IC50 curve with preset fitting tools according to equation 1:
(§4) y=a+(b−a)/(1+(10^x/10^c)^d) (1)
(§5) where y is the response at a particular inhibitor concentration x, a is the minimum response value, b is the maximum response value, c is the IC50, and d is the slope of the IC50 curve. Assuming the compound is a competitive inhibitor, the apparent KI can be calculated from IC50, as shown in equation 2: […]

Cathepsin K = biological target: T1, Cathepsin K (Homo sapiens, UniProt P43235); assay: Cathepsin K enzymatic assay (assay 1); settings: human recombinant enzyme, Z-FR-AFC substrate, pH 5.5
T1 sequence (P43235 115-329): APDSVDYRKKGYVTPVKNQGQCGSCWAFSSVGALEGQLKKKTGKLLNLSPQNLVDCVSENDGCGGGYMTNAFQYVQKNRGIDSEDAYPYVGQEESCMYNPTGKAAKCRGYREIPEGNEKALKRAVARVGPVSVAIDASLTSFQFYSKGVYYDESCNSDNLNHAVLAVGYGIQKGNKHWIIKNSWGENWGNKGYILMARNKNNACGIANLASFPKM
Method: as §1, §2, §3, §4, §5

Falcipain-3 = Falcipain-3 (Plasmodium falciparum, UniProt Q8IIL0); assay: Falcipain-3 enzymatic assay (assay 1)
Chain of Falcipain-3 (Q8IIL0 243-492): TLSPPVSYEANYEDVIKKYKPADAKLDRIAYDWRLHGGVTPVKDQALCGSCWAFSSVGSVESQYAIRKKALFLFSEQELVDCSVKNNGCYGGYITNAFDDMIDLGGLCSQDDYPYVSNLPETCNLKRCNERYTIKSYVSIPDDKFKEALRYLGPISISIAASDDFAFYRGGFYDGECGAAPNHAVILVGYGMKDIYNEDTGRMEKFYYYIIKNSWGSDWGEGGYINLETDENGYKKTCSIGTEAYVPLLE
Method: as §1, §2, §3, §4, §5

Chain of Falcipain-2 (Q8I6U4 244-484): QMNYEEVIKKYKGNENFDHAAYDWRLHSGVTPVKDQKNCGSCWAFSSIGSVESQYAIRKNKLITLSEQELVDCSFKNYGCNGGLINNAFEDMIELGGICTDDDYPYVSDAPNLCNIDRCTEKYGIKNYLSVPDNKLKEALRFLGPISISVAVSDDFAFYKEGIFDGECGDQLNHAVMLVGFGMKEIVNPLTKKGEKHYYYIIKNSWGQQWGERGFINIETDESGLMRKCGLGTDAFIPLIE

SMILES | IC50 (Falcipain-2) [nM] | IC50 (Cathepsin K) [nM] | IC50 (Falcipain-3) [nM] | IC50 (Falcipain-2; parasitic recombinant enzyme, H-D-VLR-AFC substrate, pH 5.5, endpoint read, read-out: Falcipain-2 IC50) [nM]
CN1CCN(C2CCN(Cc3cccc(C(=O)NN(c4nc(C#N)ncc4Br)C4CCCCC4)c3)CC2)CC1 [Example 20, N′-(5-bromo-2-cyano-4-pyrimidinyl)-N′-cyclohexyl-3-{([4-(4-methyl-1-piperazinyl)-1-piperidinyl]methyl}benzohydrazide trifluoroacetate] | < 1 | < 1.5 | 15 to 150 | 
CN1CCN(C(=O)C2CCN(Cc3ccc(C(=O)NN(c4nc(C#N)ncc4Br)C4CCOCC4)cc3)CC2)CC1 [Example 32, N′-(5—Bromo-2-cyano-4-pyrimidinyl)-4-({4-[(4-methyl-1-piperazinyl)carbonyl]-1-piperidinyl}methyl)-N′-(tetrahydro-2H-pyran-4-yl)benzohydrazide trifluoroacetate] | < 1 | < 17 | 2.5 to 15 | 
CN1CCC(CN2CCN(Cc3ccc(C(=O)NN(c4nc(C#N)ncc4Cl)C4CCOCC4)cc3)CC2)CC1 [Example 35, N′-(5-Chloro-2-cyano-4-pyrimidinyl)-4-({4-[(1-methyl-4-piperidinyl)methyl]-1-piperazinyl}methyl)-N′-(tetrahydro-2H-pyran-4-yl)benzohydrazide trifluoroacetate] | 1 to 2.5 | < 17 | 15 to 150 | 
CN1CCN(C(=O)C2CCN(Cc3ccc(C(=O)NN(c4nc(C#N)ncc4Cl)C4CCOCC4)cc3)CC2)CC1 [Example 36, N′-(5-Chloro-2-cyano-4-pyrimidinyl)-4-({4-[(4-methyl-1-piperazinyl)carbonyl]-1-piperidinyl}methyl)-N′-(tetrahydro-2H-pyran-4-yl)benzohydrazide trifluoroacetate] |  | < 17 | 15 to 150 | < 1
N#Cc1ncc(Br)c(N(NC(=O)c2cccc(CN3CCC(N4CCOCC4)CC3)c2)C2CCCCC2)n1 [Example 24, N′-(5-bromo-2-cyano-4-pyrimidinyl)-N′-cyclohexyl-3-{[4-(4-morpholinyl)-1-piperidinyl]methyl}benzohydrazide trifluoroacetate] | < 1 | < 1.5 | 2.5 to 15 | 
N#Cc1ncc(Br)c(N(NC(=O)c2ccc(CN3CCC(N4CCOCC4)CC3)cc2)C2CCCCC2)n1 [Example 18, N′-(5-bromo-2-cyano-4-pyrimidinyl)-N′-cyclohexyl-4-{([4-(4-morpholinyl)-1-piperidinyl]methyl}benzohydrazide trifluoroacetate] | < 1 | < 1.5 | 2.5 to 15 | 
CN1CCN(C(=O)C2CCN(Cc3ccc(C(=O)NN(c4nc(C#N)ncc4Br)C4CCCC4)cc3)CC2)CC1 [Example 9, N′-(5-bromo-2-cyano-4-pyrimidinyl)-N′-cyclopentyl-4-({4-[(4-methyl-1-piperazinyl)carbonyl]-1-piperidinyl}methyl)benzohydrazide trifluoroacetate] | < 1 | < 1.5 | 2.5 to 15 | 
CN1CCCC(CN2CCN(Cc3cccc(C(=O)NN(c4nc(C#N)ncc4Br)C4CCCC4)c3)CC2)C1 (stereo not drawn) [Example 14, N′-(5-bromo-2-cyano-4-pyrimidinyl)-N′-cyclopentyl-3-({4-[(1-methyl-3-piperidinyl)methyl]-1-piperazinyl}methyl)benzohydrazide trifluoroacetate] | < 1 | < 1.5 | 2.5 to 15 | 
CN1CCN(C(=O)C2CCN(Cc3cccc(C(=O)NN(c4nc(C#N)ncc4Br)C4CCCC4)c3)CC2)CC1 [Example 12, N′-(5-bromo-2-cyano-4-pyrimidinyl)-N′-cyclopentyl-3-({4-[(4-methyl-1-piperazinyl)carbonyl]-1-piperidinyl}methyl)benzohydrazide trifluoroacetate] | < 1 | < 1.5 | 2.5 to 15 | 
N#Cc1ncc(Br)c(N(NC(=O)c2ccc(CN3CC(N4CCCC4)C3)cc2)C2CCOCC2)n1 [Example 33, N′-(5-bromo-2-cyano-4-pyrimidinyl)-4-{[3-(1-pyrrolidinyl)-1-azetidinyl]methyl}-N′-(tetrahydro-2H-pyran-4-yl)benzohydrazide trifluoroacetate] | < 1 | < 17 | 15 to 150 | 
CN1CCCC(CN2CCN(Cc3ccc(C(=O)NN(c4nc(C#N)ncc4Br)C4CCCC4)cc3)CC2)C1 (stereo not drawn) [Example 8, N′-(5-bromo-2-cyano-4-pyrimidinyl)-N′-cyclopentyl-4-({4-[(1-methyl-3-piperidinyl)methyl]-1-piperazinyl}methyl)benzohydrazide trifluoroacetate] | < 1 | < 1.5 | 2.5 to 15 | 
CN1CCCC(CN2CCN(Cc3ccc(C(=O)NN(c4nc(C#N)ncc4Br)C4CCOCC4)cc3)CC2)C1 (stereo not drawn) [Example 31, N′-(5—Bromo-2-cyano-4-pyrimidinyl)-4-({4-[(1-methyl-3-piperidinyl)methyl]-1-piperazinyl}methyl)-N′-(tetrahydro-2H-pyran-4-yl)benzohydrazide trifluoroacetate] | < 1 | < 17 | 15 to 150 | 
CN1CCC(CN2CCN(Cc3ccc(C(=O)NN(c4nc(C#N)ncc4Br)C4CCOCC4)cc3)CC2)CC1 [Example 30, N′-(5—Bromo-2-cyano-4-pyrimidinyl)-4-({4-[(1-methyl-4-piperidinyl)methyl]-1-piperazinyl}methyl)-N′-(tetrahydro-2H-pyran-4-yl)benzohydrazide trifluoroacetate] | 1 to 2.5 | < 17 | 2.5 to 15 | 
CN1CCC(CN2CCN(Cc3ccc(C(=O)NN(c4nc(C#N)ncc4Br)C4CCCCC4)cc3)CC2)CC1 [Example 19, N′-(5-bromo-2-cyano-4-pyrimidinyl)-N′-cyclohexyl-4-({4-[(-methyl-4-piperidinyl)methyl]-1-piperazinyl}methyl)benzohydrazide trifluoroacetate] | < 1 | < 1.5 | 2.5 to 15 | 
C[C@@H]1CCC[C@H]1N(NC(=O)c1ccc(F)cc1)c1nc(C#N)ncc1Br (racemic) [Example 43, N′-(5-bromo-2-cyano-4-pyrimidinyl)-4-fluoro-N′-[(1R,2R+1S,2S))-2-methylcyclopentyl]benzohydrazide trifluoroacetate] | < 1 | < 17 | 2.5 to 15 | 
CN1CCC(CN2CCN(Cc3ccc(C(=O)NN(c4nc(C#N)ncc4Br)C4CCCC4)cc3)CC2)CC1 [Example 7, N′-(5-bromo-2-cyano-4-pyrimidinyl)-N′-cyclopentyl-4-({4-[(1-methyl-4-piperidinyl)methyl]-1-piperazinyl}methyl)benzohydrazide trifluoroacetate] | < 1 | < 1.5 | 2.5 to 15 | 
CN1CCN(C(=O)C2CCN(Cc3cccc(C(=O)NN(c4nc(C#N)ncc4Br)C4CCCCC4)c3)CC2)CC1 [Example 23, N′-(5-bromo-2-cyano-4-pyrimidinyl)-N′-cyclohexyl-3-({4-[(4-methyl-1-piperazinyl)carbonyl]-1-piperidinyl}methyl)benzohydrazide trifluoroacetate] | < 1 | < 1.5 | 2.5 to 15 | 
N#Cc1ncc(Br)c(N(NC(=O)c2ccc(CN3CCC(O)CC3)cc2)C2CCCCC2)n1 [Example 21, N′-(5-bromo-2-cyano-4-pyrimidinyl)-N′-cyclohexyl-4-[(4-hydroxy-1-piperidinyl)methyl]benzohydrazide trifluoroacetate] | < 1 | < 1.5 | 2.5 to 15 | 
